test system: recombinant human cytomegalovirus (HCMV); experiment: microbe, parasite or virus in culture; type: cell-based; conditions: CMV assay, Table 2; read-out: Antiviral Activity
Source text: Certain preferred compounds and compositions are capable of specifically inhibiting or suppressing cytomegalovirus infection. For the assessment of activity against human CMV, a method was used which is similar to that described in Kohler, et al., J. Virol. 68:6589-6597 (1994). Briefly, a recombinant human cytomegalovirus (HCMV) was made containing a marker gene (luciferase) under the control of the promoter for the late 28 kDa viral structural phosphoprotein pp28. Human foreskin fibroblast (HFF) cells were infected with the recombinant HCMV virus (MOI 5), placed into 96-well plates, and cultured under standard cell-culture conditions. Compounds that were evaluated for anti-HCMV activity were added to the infected cells 1 hour later. The level of luciferase expression was measured 24 hours after treatment with the test compounds. […] As an additional control, the cytotoxicity of test compounds on untreated HFF cells was also evaluated in cultured cell growth experiments.

Compound	IC50 [nM]
Cc1ccccc1CNc1nc(C)c([N+](=O)[O-])c(-n2ccnc2C)n1	100 to 500
Cc1nc(NCc2ccc(Cl)c(Cl)c2)nc(-n2ccnc2C)c1[N+](=O)[O-]	100 to 500
Cc1nc(NCc2cc(C(F)(F)F)ccc2F)nc(-n2ccnc2C)c1[N+](=O)[O-]	< 100
Cc1nc(NCc2cc(Cl)cc(Cl)c2)nc(-n2ccnc2C)c1[N+](=O)[O-]	100 to 500
Cc1cccc(Cl)c1CNc1nc(C)c([N+](=O)[O-])c(-n2ccnc2C)n1	100 to 500
Cc1nc(NCc2c(F)ccc(F)c2F)nc(-n2ccnc2C)c1[N+](=O)[O-]	100 to 500
Cc1nc(NCc2cccc(Cl)c2Cl)nc(-n2ccnc2C)c1[N+](=O)[O-]	100 to 500
Cc1nc(NCc2ccccc2Cl)nc(-n2ccnc2C)c1[N+](=O)[O-]	< 100
Cc1nc(NCc2cccc(Br)c2)nc(-n2ccnc2C)c1[N+](=O)[O-]	< 100
Cc1nc(NCc2cc(F)cc(F)c2)nc(-n2ccnc2)c1[N+](=O)[O-]	> 500
COc1cccc(CNc2nc(C)c([N+](=O)[O-])c(-n3ccnc3C)n2)c1	100 to 500
Cc1nc(NCc2cc(F)cc(F)c2F)nc(-n2ccnc2C)c1[N+](=O)[O-]	100 to 500
CCc1nccn1-c1nc(NCc2c(F)cccc2Cl)nc(C)c1[N+](=O)[O-]	100 to 500
Cc1nc(NCc2ccc(F)c(C(F)(F)F)c2)nc(-n2ccnc2C)c1[N+](=O)[O-]	< 100
Cc1nc(NCc2cccc(F)c2)nc(-n2ccnc2C)c1[N+](=O)[O-]	100 to 500
Cc1nc(NCc2ccc(F)cc2Cl)nc(-n2ccnc2C)c1[N+](=O)[O-]	100 to 500
CCC(Nc1nc(C)c([N+](=O)[O-])c(-n2ccnc2C)n1)c1ccccc1 (centres unmarked)	100 to 500
Cc1ccccc1CNc1nc(C)c([N+](=O)[O-])c(-n2ccnc2)n1	> 500
Cc1nc(NCc2ccccn2)nc(-n2ccnc2C)c1[N+](=O)[O-]	100 to 500
CCc1nccn1-c1nc(NCc2ccc(F)cc2Cl)nc(C)c1[N+](=O)[O-]	100 to 500

Compound	IC50 [nM]
Cc1nc(NCc2ccc(F)c(F)c2F)nc(-n2ccnc2C)c1[N+](=O)[O-]	100 to 500
Cc1nc(NCc2ccc(Cl)cc2)nc(-n2ccnc2C)c1[N+](=O)[O-]	100 to 500
Cc1nc(NCc2c(F)cccc2Cl)nc(-n2ccnc2C)c1[N+](=O)[O-]	100 to 500
CCc1nccn1-c1nc(NCc2ccc(F)cc2C(F)(F)F)nc(C)c1[N+](=O)[O-]	100 to 500
Cc1nc(NCc2ccc(F)c(F)c2)nc(-n2ccnc2C)c1[N+](=O)[O-]	100 to 500
Cc1nc(NCc2cccnc2)nc(-n2ccnc2C)c1[N+](=O)[O-]	> 500
Cc1nc(NCc2cccc(Cl)c2)nc(-n2ccnc2C)c1[N+](=O)[O-]	< 100
Cc1nc(NCc2cc(F)c(F)c(F)c2)nc(-n2ccnc2C)c1[N+](=O)[O-]	100 to 500
Cc1nc(NCc2cc(F)ccc2F)nc(-n2ccnc2C)c1[N+](=O)[O-]	100 to 500
Cc1nc(NCc2cc(C(F)(F)F)cc(C(F)(F)F)c2)nc(-n2ccnc2C)c1[N+](=O)[O-]	> 500
Cc1nc(NCc2ccc(F)cc2)nc(-n2ccnc2C)c1[N+](=O)[O-]	100 to 500
Cc1nc(NCc2ccc(F)cc2C(F)(F)F)nc(-n2ccnc2C)c1[N+](=O)[O-]	100 to 500
COc1ccc(CNc2nc(C)c([N+](=O)[O-])c(-n3ccnc3C)n2)cc1OC	100 to 500
Cc1ccc(CNc2nc(C)c([N+](=O)[O-])c(-n3ccnc3C)n2)cc1	> 500
Cc1nc(NCc2cc(Cl)ccc2Cl)nc(-n2ccnc2C)c1[N+](=O)[O-]	< 100
Cc1nc(NCc2cc(F)cc(F)c2)nc(-n2ccnc2C)c1[N+](=O)[O-]	< 100
Cc1nc(NCc2ccccc2OC(F)(F)F)nc(-n2ccnc2C)c1[N+](=O)[O-]	100 to 500
Cc1nc(NCc2cccc(C(F)(F)F)c2)nc(-n2ccnc2C)c1[N+](=O)[O-]	< 100
Cc1cccc(CNc2nc(C)c([N+](=O)[O-])c(-n3ccnc3C)n2)c1	100 to 500

same assay, conditions: CMV assay, Table 3; read-out: Antiviral Activity

Compound	IC50 [nM]
Cc1nc(OCc2ccccc2)nc(-n2ccnc2)c1[N+](=O)[O-] [benzyl/H/Me]	> 500
COC(C)CCOc1nc(C)c([N+](=O)[O-])c(-n2ccnc2)n1 (centres unmarked) [3-methoxy-1-butyl/H/Me]	> 500
Cc1nc(OCCC(C)(C)C)nc(-n2ccnc2)c1[N+](=O)[O-] [3,3-dimethyl-1-butyl/H/Me]	> 500
COC(C)CCOc1nc(C)c([N+](=O)[O-])c(-n2ccnc2C)n1 (centres unmarked) [3-methoxy-1-butyl/Me/Me]	> 500
Cc1nc(OCCC(C)(C)C)nc(-n2ccnc2C)c1[N+](=O)[O-] [3,3-dimethyl-1-butyl/Me/Me]	> 500
COc1nc(C)c([N+](=O)[O-])c(-n2ccnc2C)n1 [methyl/Me/Me]	> 500
CCOc1nc(C)c([N+](=O)[O-])c(-n2ccnc2C)n1 [ethyl/Me/Me]	> 500
CCCOc1nc(C)c([N+](=O)[O-])c(-n2ccnc2)n1 [n-propyl/H/Me]	> 500
CCCCOc1nc(C)c([N+](=O)[O-])c(-n2ccnc2)n1 [n-butyl/H/Me]	> 500
Cc1nc(OCCc2ccccc2)nc(-n2ccnc2)c1[N+](=O)[O-] [phenethyl/H/Me]	> 500
CCCCOc1nc(C)c([N+](=O)[O-])c(-n2ccnc2C)n1 [n-butyl/Me/Me]	> 500

same assay, conditions: CMV assay, Table 4; read-out: Antiviral Activity

Compound	IC50 [nM]
Cc1nc(N(C)C2CCc3ccccc32)nc(-n2ccnc2C)c1[N+](=O)[O-] (centres unmarked)	100 to 500
Cc1nc(NC2Cc3ccccc3C2(C)C)nc(-n2ccnc2C)c1[N+](=O)[O-] (centres unmarked)	100 to 500
CCc1nccn1-c1nc(NC2CCc3c(F)cccc32)nc(C)c1[N+](=O)[O-] (centres unmarked)	100 to 500
Cc1nc(NC2CCc3ccccc32)nc(-n2ccnc2)c1[N+](=O)[O-] (centres unmarked)	< 100
Cc1nc(NC2CCc3c(F)ccc(F)c32)nc(-n2ccnc2C)c1[N+](=O)[O-] (centres unmarked)	< 100
Cc1nc(NC2CCc3cc(Br)ccc32)nc(-n2ccnc2C)c1[N+](=O)[O-] (centres unmarked)	100 to 500
Cc1nc(NC2CCc3cc(F)ccc32)nc(-n2ccnc2C)c1[N+](=O)[O-] (centres unmarked)	100 to 500
Cc1nc(NC2CCc3c(F)cccc32)nc(-n2ccnc2)c1[N+](=O)[O-] (centres unmarked)	100 to 500
Cc1nc(NC2COc3ccccc32)nc(-n2ccnc2C)c1[N+](=O)[O-] (centres unmarked)	100 to 500
Cc1nc(NC2CCc3c(Cl)cccc32)nc(-n2ccnc2C)c1[N+](=O)[O-] (centres unmarked)	> 500
Cc1nc(NC2CCc3c(F)ccc(F)c32)nc(-n2ccnc2)c1[N+](=O)[O-] (centres unmarked)	100 to 500
CCc1nccn1-c1nc(NC2CCc3ccccc32)nc(C)c1[N+](=O)[O-] (centres unmarked)	100 to 500
COC1c2ccccc2CC1Nc1nc(C)c([N+](=O)[O-])c(-n2ccnc2)n1 (centres unmarked)	> 500
Cc1nc(NC2CCc3cc(F)c(F)cc32)nc(-n2ccnc2C)c1[N+](=O)[O-] (centres unmarked)	100 to 500
CCc1nccn1-c1nc(NC2Cc3ccccc3C2)nc(C)c1[N+](=O)[O-]	> 500
Cc1nc(NC2CCc3ccccc32)nc(-n2ccnc2C)c1[N+](=O)[O-] (centres unmarked)	< 100
Cc1nc(NC2CCc3cc(F)ccc32)nc(-n2ccnc2)c1[N+](=O)[O-] (centres unmarked)	< 100
CCc1nccn1-c1nc(NC2CCc3cc(F)c(F)cc32)nc(C)c1[N+](=O)[O-] (centres unmarked)	100 to 500
Cc1nc(NC2Cc3ccccc3C2(C)C)nc(-n2ccnc2)c1[N+](=O)[O-] (centres unmarked)	> 500
Cc1nc(NC2CCc3ccc(Cl)cc32)nc(-n2ccnc2C)c1[N+](=O)[O-] (centres unmarked)	100 to 500
Cc1nc(NC2CCc3cc(F)c(F)cc32)nc(-n2ccnc2)c1[N+](=O)[O-] (centres unmarked)	100 to 500
Cc1nc(NC2CCCc3ccccc32)nc(-n2ccnc2C)c1[N+](=O)[O-] (centres unmarked)	100 to 500
COC1c2ccccc2CC1Nc1nc(C)c([N+](=O)[O-])c(-n2ccnc2C)n1 (centres unmarked)	> 500
Cc1nc(NC2CCc3c(F)cccc32)nc(-n2ccnc2C)c1[N+](=O)[O-] (centres unmarked)	100 to 500
CCc1nccn1-c1nc(NC2CCc3c(F)ccc(F)c32)nc(C)c1[N+](=O)[O-] (centres unmarked)	< 100

same assay, conditions: Human betaherpesvirus 5, HFF, 24 h

Compound	IC50 [nM]
Cc1nc(N2CCN(Cc3ccccc3)CC2)nc(-n2ccnc2C)c1[N+](=O)[O-] [u, 2-(4-benzylpiperazin-1-yl)-4-(2-methylimidazol-1-yl)-6-methyl-5-nitropyrimidine]	100

test system: not given; experiment: not given; conditions: not given

Compound	melting point [°C]
Cc1nc(NC2CCc3c(F)cc(F)cc32)nc(-n2ccnc2)c1[N+](=O)[O-] (centres unmarked) [2-(4,6-difluoro-1-indanamino)-4-(imidazol-1-yl)-6-methyl-5-nitropyrimidine]	175 to 176
CCc1nccn1-c1nc(NC2CCc3c(F)cc(F)cc32)nc(C)c1[N+](=O)[O-] (centres unmarked) [2-(4,6-difluoro-1-indanamino)-4-(2-ethylimidazol-1-yl)-6-methyl-5-nitropyrimidine]	88 to 89
Cc1nc(NC2Cc3ccccc3C2)nc(-n2ccnc2C)c1[N+](=O)[O-].Cl	184 to 185
Cc1nc(NC2CCc3c(F)cc(F)cc32)nc(-n2ccnc2C)c1[N+](=O)[O-] (centres unmarked) [2-(4,6-difluoro-1-indanamino)-4-(2-methylimidazol-1-yl)-6-methyl-5-nitropyrimidine]	164 to 165
Cc1nc(NC2Cc3ccccc3C2)nc(-n2ccnc2C)c1[N+](=O)[O-] [2-(2-indanamino)-4-(2-methylimidazol-1-yl)-6-methyl-5-nitropyrimidine]	203 to 204
CC[C@H]1CCCC[C@H]1Nc1nc(C)c([N+](=O)[O-])c(-n2ccnc2)n1 (relative stereo)	123 to 124
Cc1nc(NC2Cc3ccccc3C2)nc(-n2ccnc2)c1[N+](=O)[O-] [2-(2-indanamino)-4-imidazol-1-yl-6-methyl-5-nitropyriridine]	177 to 178

Source: patent US6835726B2, “Pyrimidine derivatives” (priority 1998, dated 2004)
